What was measured:
[1] = Capture and release of target molecule by cross-linked polymer (HDI-linked cyclodextrin), slurry protocol; assay type: physicochemical; conditions: Example 9; 2 mg/mL in 1:1 ethanol:water, 10:1
Experimental: A mass of CBD was dissolved in ethanol to form a stock solution. A reference sample of the stock solution was diluted with ethanol to obtain a target CBD or other target molecule concentration for a reference measurement. A reaction sample was taken from the remaining stock solution. A cross-linked polysaccharide was combined with the reaction sample in a ratio relative to the CBD or other target molecule concentration present in the reaction sample (by mass) as specified in Examples. The cross-linked polymer is HDI-linked cyclodextrin prepared with a ratio of 8:1 HDI to cyclodextrin.
Water is combined with the reaction sample until the reaction sample reaches a target CBD or other target molecule concentration, and a target ethanol to water ratio. The reaction mixture including the water is filtered at a cutoff size of between 75 μm to 4,000 μm aperture size, or exposed to a magnetic field with a neodymium magnet through the wall of a flask, to retrieve the cross-linked polymer bound with CBD or other target molecule concentration. Once retrieved, the cross-linked polymer is flushed with a dissociation fluid for dissolving the target molecule.
Ten milligrams of CBD were dissolved in a 10 mL mixture of 1:1 ethanol to water to produce a reaction mixture with a CBD concentration of 1 mg/mL. A 1 mL aliquot was then taken from the reaction mixture as a reference sample (t=0). […]

[2] = Dissolution of CBD in ethanol:water mixtures; assay type: physicochemical
Experimental: The protocol of Example 9 was followed with the 60 mg initially dissolved in ethanol only. […] The remaining five portions were diluted to an ethanol to water ratio of 7:3, 6:4, 5:5, 4:6 or 3:7. The portions were then filtered to retrieve the cross-linked polymer.
At 50:50 EtOH:H2O, CBD dissolves provided that EtOH is added first then H2O. At 45:56 EtOH:H2O, the 2 mg/mL CBD solution is cloudy. […] Slowly adding H2O to the CBD, EtOH, polymer mixture results in very high capture of 98% at a 3:7 EtOH:H2O.
The portions were filtered by pipette filtration to retrieve the cross-linked polymer. The cross-linked polymer was then flushed with DMSO. […] Ten percent of the CBD is not in solution when CBD in 3:7 EtOH:H2O is used. The calculated cyclodextrin capacity within the polymer is 8:1 polymer:CBD.

## C=C(C)[C@@H]1CCC(C)=C[C@H]1c1c(O)cc(CCCCC)cc1O [CBD, cannabidiol]
[1]
  time to capture plateau: about 5 minutes
[2]; 6 mg/mL in 1:1 EtOH:H2O, sonication and heating
  dissolution of CBD: did not dissolve
[2]; 40:60 EtOH:H2O, 2 mg/mL
  dissolution of CBD: not fully dissolved
[2]; 45:56 EtOH:H2O, 2 mg/mL
  dissolution of CBD: cloudy
[2]; 50:50 EtOH:H2O, 2 mg/mL, EtOH added first then H2O
  dissolution of CBD: dissolves
[2]; CBD in 3:7 EtOH:H2O, Example 17
  CBD not in solution: Ten

Source: patent publication US20240150270A1, “METHOD FOR SELECTIVE RECOVERY OF LIPOPHILIC COMPOUNDS” (priority 2021, published 2024)
